Data reported in patent publication US6136814A (priority 1997, dated 2000).
“And” between values parts separate entries of the source, which are not always exact repeats. Equal entries are not always repeated.

What was measured:
[1] = calculated pH over time, 10 mL vial, normal atmospheric storage (Example 7)
Protocol: (§1) The atmospheric CO2 content, measured using a Dickson, Model CO2 X carbon dioxide recorder, was measured as 0.07% by volume and this value was used in the calculation.

[2] = pH stability of aqueous acyclovir sodium under accelerated CO2 permeation conditions (Example 2); assay type: physicochemical; settings: after 3 weeks
Text: The solution was transferred, under a nitrogen atmosphere, to autoclaved filling equipment contained within a laminar air-flow hood to avoid particle and microbiological contamination. […] The filtered bulk solution and containers were purged with nitrogen during the filling process to avoid CO2 absorption. The process was repeated for polyethylene terephthalate vials and Daikyo Resin CZ vials (sold by Daikyo Gomu Seiko, Ltd, reported in some references as polymethylpentene).
The samples were tested under accelerated CO2 storage conditions. The samples were placed in three different chambers with elevated CO2 atmospheres, maintained at a concentration of approximately 2%, 5%, and 10% CO2 by volume, for 3 weeks. The pH was measured at various times using a calibrated standard pH meter.

aqueous solubility = assay type: physicochemical; settings: water, determined experimentally
[3] = pH at which precipitation or haziness is observed; assay type: physicochemical
Text: As indicated earlier, the pH of aqueous acyclovir sodium must be maintained above the pHp to avoid the formation of precipitates.

[4] = calculated pH over time, 20 mL vial, normal atmospheric storage (Example 8)
Protocol: as §1

[5] = measured pH drop over 21 months under normal atmospheric conditions (Example 9); assay type: physicochemical
Protocol: For each vial, one half was stored in the upright position and the other half was stored in the inverted position. The pH was measured over time using a standard calibrated pH meter.

[6] = effect of CO2 on pH of aqueous acyclovir solution under accelerated conditions (Example 6); assay type: physicochemical
Protocol: The desiccators were evacuated and filled with the CO2 standards three consecutive times at the beginning of the experiment, and the filling process was repeated each week and each time the desiccators were opened for removing samples. The pressure in the desiccators was maintained at 1 atm. The pH was measured at various time intervals.

[7] = compatibility with container and seal materials, pH on storage (Example 3); assay type: physicochemical; settings: polypropylene vials, RT and 40° C., three months
Protocol: At various time intervals, the samples were tested for pH. The pH was measured using a calibrated standard pH meter.

[8] = cited from earlier work
[9] = depending on the desired concentration; cited from earlier work
[10] = effect of CO2 on pH of unbuffered aqueous sodium hydroxide in polypropylene vials (Example 1); assay type: physicochemical
Text: This example represents the effect of CO2 on the pH of an unbuffered aqueous sodium hydroxide solution. […] The solution was placed in a series of identical polypropylene vials which were sealed and separated into two groups (Groups A and B). The vials were identical in every relevant parameter, including average wall thickness, surface area, and stoppers. The sodium hydroxide solution in all samples were taken from the same lot and each vial was filled under identical filling conditions. Samples in group A were stored under normal atmospheric conditions. Samples in group B were placed in a 5.8 L desiccator along with a beaker containing 50 mL of 1N aq. HCl (0.05 moles HCl). After carefully adding 100 mL of 0.5M NaHCO3 (0.05 moles NaHCO3) to the HCl solution, the desiccator was immediately sealed to prevent escape of the resulting CO2 (approximately 0.05 moles CO2). The calculated concentration of CO2 in the chamber was approximately 18% by volume. The samples were allowed to stand for 3 weeks under the aforesaid conditions. The pH of the samples in the containers was measured using a calibrated standard pH meter.

Nc1nc2c(ncn2COCCO)c(=O)[nH]1 [acyclovir sodium]
shelf life [1]: greater than 24 months | precipitate ([2]; 2%, 5% and 10% CO2): no precipitate was observed | pH decline ([2]; 5% CO2): 0.33 pH units | pH decline ([2]; 10% CO2): 0.48 pH units | solubility (aqueous solubility): 644 mg/mL | pH at which precipitation becomes apparent ([3]; 54.9 mg/mL aqueous solution, actual observations): < 10.8 | pH below which haziness is observed ([3]; about 55 mg/mL acyclovir sodium): < 10.8 | shelf life [4]: greater than 24 months | precipitates ([5]; after 21 months): no precipitates were detected | acceptable for parenteral administration ([5]; normal atmospheric conditions, upright or inverted): at least 21 months | shelf life ([5]; real time, normal atmospheric conditions): at least 21 months | initial pH in the absence of CO2 ([6]; 54.9 mg/mL, with purging headspace): 11.3 | Measured pH ([6]; 2.00% CO2, 10 mL vials, 14 days): 11.10 | Measured pH ([6]; 2.00% CO2, 10 mL vials, 16 days): 11.08 | Measured pH ([6]; 2.00% CO2, 10 mL vials, 20 days): 11.03 | Measured pH ([6]; 2.00% CO2, 10 mL vials, 23 days): 11.03 | Measured pH ([6]; 2.00% CO2, 10 mL vials, 27 days): 11.01 | Measured pH ([6]; 2.00% CO2, 20 mL vials, 14 days): 11.12 | Measured pH ([6]; 2.00% CO2, 20 mL vials, 16 days): 11.10 | Measured pH ([6]; 2.00% CO2, 20 mL vials, 20 days): 11.07 | Measured pH ([6]; 2.00% CO2, 20 mL vials, 23 days): 11.05 | Measured pH ([6]; 2.00% CO2, 20 mL vials, 27 days): 11.02 | Measured pH ([6]; 10.1% CO2, 10 mL vials, 6 days): 10.94 | Measured pH ([6]; 10.1% CO2, 10 mL vials, 9 days): 10.87 | Measured pH ([6]; 10.1% CO2, 10 mL vials, 14 days): 10.70 | Measured pH ([6]; 10.1% CO2, 20 mL vials, 6 days): 10.97 | Measured pH ([6]; 10.1% CO2, 20 mL vials, 9 days): 10.90 | Measured pH ([6]; 10.1% CO2, 20 mL vials, 14 days): 10.74 | precipitation upon visual inspection [7]: no precipitation was observed | impurities by HPLC ([7]; Teflon coated stoppers): no significant impurities were generated

Nc1nc2c(ncn2COCCO)c(=O)[nH]1 [acyclovir, 2-amino-1,9-dihydro-9-[(2-hydroxy-ethoxy)methyl]-6H-purin-6-one]
water solubility, neutral form ([8]; undissociated acyclovir, in words): virtually insoluble in water | aqueous solubility, neutral form ([8]; water, ambient temperature, Pharm. Res., vol. 8, p. 1087 (1991)): 6.2 mM and ~6.2 mM | pH required to maintain an aqueous solution [9]: 10-11

[Na+].[OH-] [sodium hydroxide]
pH ([10]; Group A normal atmosphere, 1 week): 11.22 | pH ([10]; Group A normal atmosphere, 3 weeks): 11.21 | pH ([10]; Group A normal atmosphere, initial): 11.31 | pH ([10]; Group B CO2 chamber (approx. 18% CO2 by vol.), 3 weeks): 6.37 | pH ([10]; Group B CO2 chamber (approx. 18% CO2 by vol.), initial): 11.31
